The subject of this data set is model of ischemia/reperfusion in the CD rat. Put plainly: Mortality and adverse changes in Phase B of rat ischemia/reperfusion study. The format is in vivo. As for the experimental part:
This study was conducted to evaluate the effects of the Compound #6 on cardiac function, infarct size, and Troponin I levels in a model of ischemia/reperfusion in the CD® (CR1CD® (SD)) rat. Phase A was conducted for toxicity evaluation purposes. In Phase B (the efficacy phase), two treatment groups of eight male rats were administered Compound #6 at dose levels of 0.2 and 2 mg/kg via intravenous infusion following myocardial infarction. The 2 mg/kg dose of Compound #6 was administered intravenously via a slow infusion starting 3 to 14 minutes prior to reperfusion and continuing for 20 minutes to 20 minutes and 32 seconds, which was approximately 6 to 17 minutes after reperfusion (depending on the infusion start time). The 0.2 mg/kg dose of Compound #6 was administered intravenously via a slow infusion starting 10 minutes prior to reperfusion and continuing for 30 minutes to 30 minutes and 30 seconds, which was approximately 20 minutes after reperfusion.
The animals were placed on mechanical ventilation and not intubated. Once anesthetized, the animal was placed in a right lateral recumbency, an arterial catheter or polyethylene tube was placed in the carotid artery for monitoring blood pressure and a thoracotomy was performed. The left coronary artery (LCA) was identified. […] In Phase A, the animals were recovered from anesthesia and evaluated for 4 days. […]

As to `Cc1ccc(CN(CCN(Cc2ccc(C)cn2)Cc2ccc(C)cn2)Cc2ccc(C)cn2)nc1` [Compound #6], under “0.2 and 2 mg/kg vs saline”, the “differences in mortality rates between saline animals and treated animals (Phase B)” value is reported as “suggest a cardioprotective effect”. Also, the “animals that died between 3 and 4 hours post reperfusion (Phase B)” value (Group 5, 0.2 mg/kg) is reported as “two”.

For the origin of these results see patent publication US20140228407A1, “TETRA-PYRIDINE COMPOUNDS AND COMPOSITION FOR PROTECTING CELLS, TISSUES AND ORGANS AGAINST ISCHEMIA-REPERFUSION INJURY” (YISSUM RESEARCH DEVELOPMENT COMPANY OF THE HEBREW …, priority 2011, published 2014).
